From patent US20220008325A1, “WHITE PINE BARK EXTRACT FOR DECREASING ENDOTHELIN-1 SECRETION, STEM CELL FACTOR SYNTHESIS AND PROTEIN CARBONYLATION” (International Flavors & Fragrances Inc., priority 2018, published 2022)

Tested on: pigmented reconstructed human epidermis (RHE)
Assay: Melanin synthesis in ex vivo pigmented reconstructed human epidermis (Fontana-Masson staining)
Format: cell-based
Details: pigmented RHE phototype IV, topical formulation (2% extract or 1% kojic acid), 3 days, 2 applications per day, vs placebo formula
Description: Non-pigmented reconstructed human epidermis (RHE) and pigmented RHE phototype IV were prepared by seeding human melanocytes and keratinocytes in an incubation chamber placed on the epidermal side of a dead dermis at 4×10^5 cells per cm^2, at a 1:20 melanocyte:keratinocyte ratio. After 24 hours, the incubation chamber was removed and the dead dermis was submerged for 3 days. The dead dermis was moved to the air-liquid interface for 8 days prior to treatment. After 8 days of exposure to the air-liquid interface, the pigmented RHE and non-pigmented RHE were contacted with Pinus strobus bark extract, placebo, negative control (no treatment), or positive control (kojic acid). This involved topical application of each formulation for 3 days, 2 applications per day (see FIG. 5). After 3 days, pigmented RHE was incubated for 3 days in the presence of a 1:1 mixture of fresh media and conditioned media from the non-pigmented RHE. The formulations included Heliogel™ (sodium acrylates copolymer, hydrogenated polyisobutene, phospholipids, polyglyceryl-10 stearate, sunflower seed oil; Lucas Meyer Cosmetics), Saboderm TCC (Caprylic/Capric Triglyceride; SABO, S.p.A), and Dekaben C (phenoxyethanol, methylparaben, ethylparaben, butylparaben, isobutylparaben, propylparaben; Jan Dekker BV) in the amounts listed in Table 1. Pigmentation was evaluated by Fontana-Masson staining. […]

O=c1cc(CO)occ1O [Kojic acid]
decrease in melanin synthesis: 8.1%
